Data as given in the supplement of paper PMC10883282.

Legend:
Assay in all cases: relative viability vs DMSO control (72 h) (fraction); higher = more viable cells
SW872 = system: SW872
Summary of the method: (§1)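 Serially diluted compound, 2.5 µl from source plates spanning 10 mM to 0.0002 mM, was added 24 h after sarcoma cell lines were seeded in 384-well plates at densities targeting 80–90% confluence. Plates then sat 72 h at 37 °C, 5% CO2, with 0.1% DMSO vehicle and a 5 µM positive control. Relative viability came from ATPLite as percent growth, averaged over up to triplicate wells, and was rescaled with 1 as full and 0 as none.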

VA-ES-BJ = system: VA-ES-BJ
Summary of the method: as §1

G401 = system: G401
Summary of the method: as §1

KHOS-NP = system: KHOS-NP
Summary of the method: as §1

SK-LMS-1 = system: SK-LMS-1
Summary of the method: as §1

SW684 = system: SW684
Summary of the method: as §1

SW982 = system: SW982
Summary of the method: as §1

RD-ES = system: RD-ES
Summary of the method: as §1

A204 = system: A204
Summary of the method: as §1

SK-ES-1 = system: SK-ES-1
Summary of the method: as §1

HS729 = system: HS729
Summary of the method: as §1

HT1080 = system: HT1080
Summary of the method: as §1

CN1CCN(c2ccc(C(=O)Nc3n[nH]c4ccc(Cc5cc(F)cc(F)c5)cc34)c(NC3CCOCC3)c2)CC1 [Entrectinib]
Settings	relative viability
A204, 0.00017 µM	1.05
A204, 0.00051 µM	1.06
A204, 0.00152 µM	1.04
A204, 0.00457 µM	1.06
A204, 0.01372 µM	1.09
A204, 0.04115 µM	1.04
A204, 0.1235 µM	1.02
A204, 0.3704 µM	1.05
A204, 1.111 µM	1.04
A204, 3.333 µM	0.865
A204, 10 µM	0.228
G401, 0.00017 µM	1.04
G401, 0.00051 µM	1.01
G401, 0.00152 µM	1.057
G401, 0.00457 µM	1.07
G401, 0.01372 µM	1.03
G401, 0.04115 µM	1.01
G401, 0.1235 µM	1.011
G401, 0.3704 µM	0.979
G401, 1.111 µM	0.87
G401, 3.333 µM	0.651
G401, 10 µM	0.163
HS729, 0.00017 µM	1.06
HS729, 0.00051 µM	0.975
HS729, 0.00152 µM	0.931
HS729, 0.00457 µM	0.948
HS729, 0.01372 µM	0.946
HS729, 0.04115 µM	0.959
HS729, 0.1235 µM	0.925
HS729, 0.3704 µM	0.919
HS729, 1.111 µM	0.832
HS729, 3.333 µM	0.665
HS729, 10 µM	0.382
HT1080, 0.00017 µM	1.095
HT1080, 0.00051 µM	1.13
HT1080, 0.00152 µM	1.1
HT1080, 0.00457 µM	1.08
HT1080, 0.01372 µM	1.08
HT1080, 0.04115 µM	1.09
HT1080, 0.1235 µM	1.08
HT1080, 0.3704 µM	1.06
HT1080, 1.111 µM	1.06
HT1080, 3.333 µM	0.952
HT1080, 10 µM	0.349
KHOS-NP, 0.00017 µM	1.08
KHOS-NP, 0.00051 µM	1.1
KHOS-NP, 0.00152 µM	1.07
KHOS-NP, 0.00457 µM	1.08
KHOS-NP, 0.01372 µM	1.06
KHOS-NP, 0.04115 µM	1.05
KHOS-NP, 0.1235 µM	1.04
KHOS-NP, 0.3704 µM	1.03
KHOS-NP, 1.111 µM	1.01
KHOS-NP, 3.333 µM	0.98
KHOS-NP, 10 µM	0.602
RD-ES, 0.00017 µM	0.991
RD-ES, 0.00051 µM	1.02
RD-ES, 0.00152 µM	0.986
RD-ES, 0.00457 µM	0.986
RD-ES, 0.01372 µM	0.992
RD-ES, 0.04115 µM	0.997
RD-ES, 0.1235 µM	0.99
RD-ES, 0.3704 µM	0.929
RD-ES, 1.111 µM	0.776
RD-ES, 3.333 µM	0.552
RD-ES, 10 µM	0.0781
SK-ES-1, 0.00017 µM	1.09
SK-ES-1, 0.00051 µM	1.04
SK-ES-1, 0.00152 µM	1.05
SK-ES-1, 0.00457 µM	1.06
SK-ES-1, 0.01372 µM	1.03
SK-ES-1, 0.04115 µM	1.1
SK-ES-1, 0.1235 µM	1.05
SK-ES-1, 0.3704 µM	0.959
SK-ES-1, 1.111 µM	0.844
SK-ES-1, 3.333 µM	0.465
SK-ES-1, 10 µM	0.105
SK-LMS-1, 0.00017 µM	1.13
SK-LMS-1, 0.00051 µM	1.1
SK-LMS-1, 0.00152 µM	1.12
SK-LMS-1, 0.00457 µM	1.13
SK-LMS-1, 0.01372 µM	1.1
SK-LMS-1, 0.04115 µM	1.07
SK-LMS-1, 0.1235 µM	1.07
SK-LMS-1, 0.3704 µM	1.072
SK-LMS-1, 1.111 µM	1.03
SK-LMS-1, 3.333 µM	0.856
SK-LMS-1, 10 µM	0.0143
SW684, 0.00017 µM	1.14
SW684, 0.00051 µM	1.17
SW684, 0.00152 µM	1.14
SW684, 0.00457 µM	1.2
SW684, 0.01372 µM	1.15
SW684, 0.04115 µM	1.15
SW684, 0.1235 µM	1.16
SW684, 0.3704 µM	1.12
SW684, 1.111 µM	1.1
SW684, 3.333 µM	0.971
SW684, 10 µM	-0.0109
SW872, 0.00017 µM	1.11
SW872, 0.00051 µM	1.09
SW872, 0.00152 µM	1.1
SW872, 0.00457 µM	1.07
SW872, 0.01372 µM	1.05
SW872, 0.04115 µM	1.05
SW872, 0.1235 µM	1.03
SW872, 0.3704 µM	0.961
SW872, 1.111 µM	0.887
SW872, 3.333 µM	0.66
SW872, 10 µM	0.218
SW982, 0.00017 µM	1.03
SW982, 0.00051 µM	1.05
SW982, 0.00152 µM	1.05
SW982, 0.00457 µM	1.07
SW982, 0.01372 µM	1.05
SW982, 0.04115 µM	1.06
SW982, 0.1235 µM	1.06
SW982, 0.3704 µM	0.991
SW982, 1.111 µM	0.865
SW982, 3.333 µM	0.548
SW982, 10 µM	0.0591
VA-ES-BJ, 0.00017 µM	1.09
VA-ES-BJ, 0.00051 µM	1.08
VA-ES-BJ, 0.00152 µM	1.06
VA-ES-BJ, 0.00457 µM	1.05
VA-ES-BJ, 0.01372 µM	1.06
VA-ES-BJ, 0.04115 µM	1.03
VA-ES-BJ, 0.1235 µM	1.022
VA-ES-BJ, 0.3704 µM	1.01
VA-ES-BJ, 1.111 µM	0.976
VA-ES-BJ, 3.333 µM	0.894
VA-ES-BJ, 10 µM	0.575
